From US8895037B2, “Administation of ellagic acid for the treatment of canities” (L'Oreal, priority 2006, dated 2014)

Experiments:
[1] = test system: normal human melanocytes (NHMs); assay: Accelerated senescence induced in vitro by a chronic H2O2 stress, viability by Alamar Blue; assay type: cell-based; details: for % relative to the control / average fluorescence: Alamar Blue on D7
Procedure: 1-C-1. Protocol for accelerated senescence induced in vitro by a chronic H2O2 stress:
(According to O. Toussaint, E. E. Medrano and T. von Zglinicki, Experimental Gerontology 2000, 35, 927-945).
The normal human melanocytes (NHMs) were inoculated at D0 at the density of 0.8×10^4 cells/cm^2. After adhesion of the cells (3 h) the active agent studied was added to the culture medium. H2O2 (250 μM) was added to the culture medium over 1 hour, at D1, D2 and D3. In addition, the culture medium was renewed every two days without addition of stress. On D7, the number of viable cells was measured using Alamar Blue (UP669413 UPTIMA, Interchim) according to the instructions of the supplier.

[2] = test system: normal human melanocytes (NHMs); assay: Reactive oxygen species (ROS) generated by an H2O2 stress in cultured normal human melanocytes; assay type: cell-based; details: NHM pretreated 12 h/18 h, 250 μM H2O2, fluorescence after 15 min; FIG. 1
Procedure: 1-A-1. Protocol for measuring the reactive oxygen species (ROS) generated by an H2O2 stress in cultured normal human melanocytes (NHMs) The normal human melanocytes (NHMs) were inoculated at D0 at the density of 4×10^4 cells/cm^2. At D1, the culture medium was replaced with the 10 μM solution of 6-carboxy-2',7'-dichlorodihydrofluorescein diacetate, di[acetoxymethyl ester] in PBS (H2DCFDA, C2938, Molecular Probes). After 20 min the H2DCFDA solution was replaced with the culture medium. The NHMs were left for 30 min before adding the H2O2 solution (250 μM). The fluorescence was measured after 15 min in a fluoroscan (excitation: 485 nm, emission: 538 nm). The compounds studied were used depending on their properties (concentration, preincubation time). N-Acetylcysteine ([…], Sigma) was used as a reference molecule. The melanocytes were pretreated, 12 h/18 h at 37° C., with the compound studied in the culture medium, before being brought into contact for 20 minutes with H2DCFDA (10 μM in PBS). […] The fluorescence was measured after 15 min in a fluoroscan (excitation: 485 nm, emission: 538 nm). The results represent the crude fluorescence data, from which the autofluorescence values of “blank” cells, expressed in fluorescence units (fu), obtained during a representative experiment, have been deducted.

[3] = (no treatment, NAC, EA), chronic H2O2 250 μM at D1, D2, D3

| Structure (SMILES) | % relative to the control ([1]; (Control, NAC, EA)) [%] | average fluorescence ([1]; (Control, NAC, EA)) | % relative to the control [1, 3] [%] | average fluorescence [1, 3] | reactive oxygen species induced by H2O2 (fluorescence, H2DCFDA) [2] | viability after accelerated senescence induced by chronic H2O2 stress ([1]; NHM, H2O2 250 μM at D1, D2, D3, read on D7, FIG. 3) |
| --- | --- | --- | --- | --- | --- | --- |
| CC(=O)N[C@@H](CS)C(=O)O [NAC, N-Acetylcysteine, reference compound] | 106 | 8056.00 | 38 | 2869.00 |  |  |
| O=c1oc2c(O)c(O)cc3c(=O)oc4c(O)c(O)cc1c4c23 [ellagic acid, 2,3,7,8-tetrahydroxy(1)benzopyrano(5,4,3-CDE)(1)benzopyran-5,10-dione] | 97 | 7343.67 | 39 | 2934.00 | decrease of the reactive oxygen species | significant increase in viability |
